According to patent publication US6979681B2, “Half-sandwich ruthenium (II) compounds comprising nitrogen containing ligands for treatment of cancer” (University Court, The University of Edinburgh, priority 1999, dated 2005):

Test system: A2780 ovarian cancer cell line
Experiment: Cell growth inhibition of Ru compounds on A2780 ovarian cancer cell line (24-well trays, Coulter counter)
Assay type: cell-based
Conditions: 24 hours drug exposure, further 3 days growth, cell count
Experimental: The compounds are tested on 24-well trays. Cells growing in a flask are harvested just before they become confluent, counted using a haemocytometer and diluted down with media to a concentration of 1×10^4 cells per ml. The cells are then seeded in the 24-well trays at a density of 1×10^4 cells per well (i.e. 1 ml of the diluted cell suspension is added to each well). The cells are then left to plate down and grow for 72 hours before adding the compounds of the invention.
The Ru complexes are weighed out and made up to a concentration of 1 mg/ml with deionised water then sonicated until they go into solution. The appropriate volume of the Ru solution is added to 5 ml of media to make it up to a concentration of 100 μM for each drug. This 100 μM solution is then serially diluted to make up the 10 μM, 1 μM and 0.1 μM solutions.
The media is removed from the cells and replaced with 1 ml of the media dosed with drug. Each concentration is done in duplicate. A set of control wells are left on each plate, containing media without drug.
The cells are left exposed to the drugs for 24 hours and then washed with phosphate buffered saline before fresh media is added.
They are allowed to grow on for a further 3 days before being counted using a Coulter counter.
Preparing cells for counting:
Media is removed and 1 ml of PBS is added to the cells.
250 μl of trypsin is added and cells left in incubator for a few minutes to allow the monolayers to detach.
Once trypsinised, 250 μl of media is added to each well to neutralise the trypsin. 200 μl of this suspension is added to 10 ml of NaCl for counting.
Using the above protocol, a number of compounds of the invention were tested on A2780 ovarian cancer cell line.

Molecule	IC50
F[P-](F)(F)(F)(F)F.[I][Ru-]1[NH2+]CC[NH2+]1.c1ccccc1 [Example 4, [(η^6-C6H6)RuI(H2NCH2CH2NH2—N,N)]^+[PF6]^−]	20 µM
[(η^6-p-cymene)RuCl2(isonicotinamide)] [Example 7]	11 µM
CC[NH+]1CC[NH2+][Ru-]1[Cl].F[P-](F)(F)(F)(F)F.c1ccc(-c2ccccc2)cc1 [Example 10, {(η^6-C6H5C6H5)RuCl[H2N(CH2)2NH(CH2CH3)]}^+PF6^−]	6 µM
COC(=O)c1ccccc1.F[P-](F)(F)(F)(F)F.[Cl][Ru-]1[NH2+]CC[NH2+]1 [Example 8, [η^6-C6H5CO2CH3)RuCl(H2NCH2CH2NH2—N,N)]^+[PF6]^−]	55 µM
[(η^6-p-cymene)RuCl(H2NCH2CH2NH2—N,N)]^+[PF6]^− [Example 5]	8 µM
F[P-](F)(F)(F)(F)F.[Cl][Ru-]1[NH2+]CC[NH2+]1.c1ccccc1 [Example 3, [(η^6-C6H6)RuCl(H2NCH2CH2NH2—N,N)]^+[PF6]^−]	8 µM
F[P-](F)(F)(F)(F)F.[Cl][Ru-]1[NH2+]CC[NH2+]1.c1ccc(-c2ccccc2)cc1 [Example 9, [(η^6-C6H5C6H5)RuCl(H2NCH2CH2NH2—N,N)]^+[PF6]^−]	6 µM
F[P-](F)(F)(F)(F)F.F[P-](F)(F)(F)(F)F.[Cl][Ru-]1[NH2+]CC[NH+]1CCCCCC[NH+]1CC[NH2+][Ru-]1[Cl].c1ccc(-c2ccccc2)cc1.c1ccc(-c2ccccc2)cc1 (centres unmarked) [Example 11, {[η^6-C6H5C6H5)RuCl]2[H2N(CH2)2NH(CH2)6NH(CH22NH2—N,N′,N″,N′″]}^2+2PF6^−]	5 µM
[(η^6-p-cymene)RuI(H2NCH2CH2NH2—N, N)]^+[PF6]^− [Example 6]	6 µM
[(η^6-p-cymene)RuCl(CH3CN)2]^+[PF6]^− [Example 1]	7 µM
[(η^6-p-cymene)RuBr(CH3CN)2]^+[PF6]^− [Example 2]	8 µM
